pIC50: −log10 of the molar value. Like-named read-outs stand apart in the source and are kept apart here.
How the values were obtained:
PLK4 = molecular target: T1, PLK4 (Homo sapiens, UniProt O00444); assay: LanthaScreen Eu Kinase Binding Assay, 10-point IC50; details: SelectScreen, 10-point titration
T1 sequence (O00444 1-970): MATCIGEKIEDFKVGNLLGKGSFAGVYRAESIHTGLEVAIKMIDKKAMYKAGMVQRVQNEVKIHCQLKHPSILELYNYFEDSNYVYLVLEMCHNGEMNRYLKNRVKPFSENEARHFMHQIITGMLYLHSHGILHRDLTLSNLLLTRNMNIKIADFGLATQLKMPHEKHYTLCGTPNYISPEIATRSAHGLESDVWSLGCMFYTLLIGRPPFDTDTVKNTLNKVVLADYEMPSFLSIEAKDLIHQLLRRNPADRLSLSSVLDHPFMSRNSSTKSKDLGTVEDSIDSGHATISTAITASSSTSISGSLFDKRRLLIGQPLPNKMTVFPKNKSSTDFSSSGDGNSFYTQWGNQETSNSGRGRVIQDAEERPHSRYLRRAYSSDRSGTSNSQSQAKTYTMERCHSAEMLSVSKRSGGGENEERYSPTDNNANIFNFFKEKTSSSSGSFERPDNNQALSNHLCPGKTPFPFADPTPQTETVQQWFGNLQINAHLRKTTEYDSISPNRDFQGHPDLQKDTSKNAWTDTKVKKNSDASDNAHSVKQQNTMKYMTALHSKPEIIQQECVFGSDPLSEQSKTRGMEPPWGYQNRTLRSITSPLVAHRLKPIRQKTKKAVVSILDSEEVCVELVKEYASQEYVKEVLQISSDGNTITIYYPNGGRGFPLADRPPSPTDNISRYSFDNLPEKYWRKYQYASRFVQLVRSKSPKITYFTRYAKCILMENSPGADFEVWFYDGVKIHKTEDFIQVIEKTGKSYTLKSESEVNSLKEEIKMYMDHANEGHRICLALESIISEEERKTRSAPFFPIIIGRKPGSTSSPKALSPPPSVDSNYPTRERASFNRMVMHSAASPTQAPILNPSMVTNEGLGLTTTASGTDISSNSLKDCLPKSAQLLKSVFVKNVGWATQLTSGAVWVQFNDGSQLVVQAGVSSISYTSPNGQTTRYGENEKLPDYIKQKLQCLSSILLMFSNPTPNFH
Description: (§1) Curves were generated from the compound concentration and the corresponding percent (%) inhibition calculated for each concentration tested. For PLK4, we used the LanthaScreen Eu Kinase Binding Assay (Thermo Fisher Scientific, Carlsbad, CA, USA) that utilizes an Alexa Fluor conjugated “tracer” and an Eu-labeled anti-tag antibody to measure binding of a compound to the kinase target. For AURKs (AURKA, AURKB and AURKC) we used the Z’ LYTE Kinase Assay (Thermo Fisher Scientific, Carlsbad, CA, USA) that determines the differential sensitivity of phosphorylated and non-phosphorylated peptide substrates to proteolytic cleavage using a FRET-based readout.

DAOY cells [1] = assay type: cell-based; details: Homo sapiens, read-out: MTT: IC50 of the proliferation assay
D283 cells [2] = assay type: cell-based
RT and MB cells [3] = assay: Cell cycle analysis (PI flow cytometry); assay type: cell-based; details: for polyploidy: cell lines tested, concentration not given
Method: Cell cycle analysis was performed by flow cytometry of cells stained with Propidium Iodide (PI) (Thermo Fisher Scientific, Carlsbad, CA, USA) according to manufacturer’s instructions. Cells treated with the top PLK4i candidates and 0.1% DMSO (control) were fixed in 80% ethanol overnight, stained with PI, and then subjected to flow cytometric analysis using a BD Fortessa instrument (BD Biosciences, San Jose, CA, USA). Data was analyzed using Modfit LT from Verity Software House (Topsham, ME, USA). All experiments were performed in triplicate.

BT-16 cells [4] = assay type: cell-based; details: BT-16, read-out: MTT: IC50 of the proliferation assay
DAOY cells [5] = assay: PrestoBlue Cell Viability assay; assay type: cell-based; details: Homo sapiens, read-out: PB: IC50 of the PrestoBlue Viability assay
Method: (§2) Cell viability was assessed using the Presto Blue™ Cell Viability reagent (Thermo Fisher Scientific, Carlsbad, CA, USA) following the manufacturer’s instructions. Cells were plated in 96-well plates at the same densities described above for the proliferation assay. The fluorescence was measured after 24, 48, 72, and 96 h at concentrations ranging from 0.001 to 10 µM of the inhibitor. All assays were performed in triplicate.

BT-12 cells [6] = assay: PrestoBlue Cell Viability assay; assay type: cell-based
Method: as §2

D283 cells [7] = assay: PrestoBlue Cell Viability assay; assay type: cell-based
Method: as §2

MON cells [8] = assay: PrestoBlue Cell Viability assay; assay type: cell-based; details: read-out: PB: IC50 of the PrestoBlue Viability assay
Method: as §2

BT-16 cells [9] = assay: PrestoBlue Cell Viability assay; assay type: cell-based
Method: as §2

AURKC = molecular target: T2, AURKC (Homo sapiens, UniProt Q9UQB9); assay: Z' LYTE Kinase Assay, 10-point IC50; assay type: biochemical; details: SelectScreen, 10-point titration
T2 sequence (Q9UQB9 1-309): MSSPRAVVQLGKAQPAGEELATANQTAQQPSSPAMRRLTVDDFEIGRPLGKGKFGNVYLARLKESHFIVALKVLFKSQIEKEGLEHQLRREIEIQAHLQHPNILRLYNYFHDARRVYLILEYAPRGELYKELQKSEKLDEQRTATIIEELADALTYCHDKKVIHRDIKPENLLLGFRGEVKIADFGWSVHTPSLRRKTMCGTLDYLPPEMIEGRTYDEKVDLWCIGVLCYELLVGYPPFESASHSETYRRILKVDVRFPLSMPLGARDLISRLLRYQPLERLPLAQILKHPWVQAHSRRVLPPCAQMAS
Description: as §1

AURKA = molecular target: T3, AURKA (Homo sapiens, UniProt O14965); assay: Z' LYTE Kinase Assay, 10-point IC50; assay type: biochemical; details: SelectScreen, 10-point titration
T3 sequence (O14965 1-403): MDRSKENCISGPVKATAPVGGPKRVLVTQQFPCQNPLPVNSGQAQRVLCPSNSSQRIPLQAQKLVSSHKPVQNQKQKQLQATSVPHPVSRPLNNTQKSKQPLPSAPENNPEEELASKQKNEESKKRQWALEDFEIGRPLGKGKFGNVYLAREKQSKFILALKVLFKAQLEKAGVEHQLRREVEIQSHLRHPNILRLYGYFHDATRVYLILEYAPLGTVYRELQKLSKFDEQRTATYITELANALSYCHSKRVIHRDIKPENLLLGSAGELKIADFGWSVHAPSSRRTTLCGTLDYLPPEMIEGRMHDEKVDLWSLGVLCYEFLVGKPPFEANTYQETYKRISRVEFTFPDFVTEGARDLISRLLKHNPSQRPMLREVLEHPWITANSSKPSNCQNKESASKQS
Description: as §1

AURKB = AURKB (Homo sapiens, UniProt Q96GD4); assay: Z' LYTE Kinase Assay, 10-point IC50; assay type: biochemical; details: SelectScreen, 10-point titration
Chain of AURKB (Q96GD4 whole entry): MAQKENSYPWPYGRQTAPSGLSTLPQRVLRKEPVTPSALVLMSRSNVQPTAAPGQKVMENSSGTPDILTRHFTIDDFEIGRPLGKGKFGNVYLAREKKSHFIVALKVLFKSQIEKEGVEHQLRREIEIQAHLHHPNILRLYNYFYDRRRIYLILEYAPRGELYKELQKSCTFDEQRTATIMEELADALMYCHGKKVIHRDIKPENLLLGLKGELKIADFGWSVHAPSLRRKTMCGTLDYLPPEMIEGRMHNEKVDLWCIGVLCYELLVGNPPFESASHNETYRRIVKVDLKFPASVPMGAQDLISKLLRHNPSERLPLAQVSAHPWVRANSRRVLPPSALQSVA
Description: as §1

BT-12 cells [10] = assay type: cell-based; details: Homo sapiens, BT-12, read-out: MTT: IC50 of the proliferation assay
MON cells [11] = assay: cells; details: read-out: MTT: IC50 of the proliferation assay
RT and MB cells [12] = assay: Clonogenic colony formation assay; assay type: cell-based; details: 50nM
Method: All cell lines were seeded at 200 cells per well in six-well plates and incubated overnight. After 24 h, the treatment medium was added and changed once a week. Cells were treated with 0.01, 0.05, 0.1, 0.2, 0.5, 1, 5, and 10 µM of PLK4i and 0.1% DMSO as control. After 14 days, the cells were washed twice with 1x PBS, fixed with formalin, and stained with Cresyl violet (ACROS Organics, Pittsburgh, PA, USA). Colonies were counted using the ImageJ software (www.imagej.nih.gov, accessed on April 21, 2017).

RT and MB cells [13] = assay: Beta-galactosidase senescence assay; assay type: cell-based; details: all cell lines
Method: Senescence was evaluated using the Beta-galactosidase assay (Senescence Cells Histochemical Staining Kit CS0030 (Sigma, St Louis, MO, USA) and clonogenic recovery assay as previously described.

[14] = D283, read-out: MTT: IC50 of the proliferation assay
[15] = Homo sapiens, BT-12; read-out: PB: IC50 of the PrestoBlue Viability assay
[16] = D283, read-out: PB: IC50 of the PrestoBlue Viability assay
[17] = BT-16; read-out: PB: IC50 of the PrestoBlue Viability assay
[18] = Homo sapiens, BT-12, read-out: PB: IC50 of the PrestoBlue Viability assay
[19] = BT-16, read-out: PB: IC50 of the PrestoBlue Viability assay

SMILES	pIC50 (PLK4)	pIC50 (DAOY cells [1])	pIC50 (D283 cells [2]; [14])	polyploidy (RT and MB cells [3])	pIC50 (BT-16 cells [4])	pIC50 (DAOY cells [5])	pIC50 (BT-12 cells [6]; [15])	pIC50 (D283 cells [7]; [16])	pIC50 (MON cells [8])	pIC50 (BT-16 cells [9]; [17])	pIC50 (AURKC)	pIC50 (AURKA)	pIC50 (AURKB)	pIC50 (BT-12 cells [10])	pIC50 (MON cells [11])	pIC50 (BT-12 cells [6]; [18])	pIC50 (BT-16 cells [9]; [19])	colony formation (RT and MB cells [12])	cell senescence (beta-galactosidase) (RT and MB cells [13])	further results
COc1c(Nc2cc(C)[nH]n2)nc(Sc2ccc(S(=O)(=O)Cc3cccc([N+](=O)[O-])c3F)cc2F)nc1N1CCCCC1 [centrinone B]	8.06	< 5.00	5.91	did not induce polyploidy	5.26	< 5.00	5.20	5.76	< 5.00	< 5.00	5.24	6.21	5.00	5.29	< 5.00					
COc1cc(Nc2ncc3c(n2)-c2ccc(Cl)cc2C(c2c(F)cccc2OC)=NC3)ccc1C(=O)O [alisertib]		6.47				7.51	< 5.00			< 5.00	8.03				6.45					pIC50 (D283 cells [2]; D283; read-out: MTT: IC50 of the proliferation assay): 5.02; pIC50 (D283 cells [7]; D283; read-out: PB: IC50 of the PrestoBlue Viability assay): 5.04; pIC50 (MON cells [8]; MON): 6.67
COc1cc2c(cc1F)C(c1ccccc1Cl)=Nc1c(n[nH]c1C)N2 [R1530]	8.15	6.08	< 5.00		5.41	5.73	< 5.00	< 5.00	5.43	< 5.00	7.51	8.21	7.37	< 5.00	5.49					
COc1ccc2c(c1)[C@]1(C[C@H]1c1ccc3c(/C=C/c4ccc(CN5C[C@@H](C)O[C@@H](C)C5)cc4)n[nH]c3c1)C(=O)N2 [CFI-400945, (1r,2s).2-(3-((e).4-(((cis).2,6-dimethylmorpholino)methyl)styryl). 1h.Indazol-6-yl)-5′-methoxyspiro[cyclopropane-1,3′-indolin]-2′-one]						7.03		5.08	5.29							5.07	5.23			
COc1ccc2c(c1)/C(=C\c1ccc3c(/C=C/c4ccc(N5CCN(C)CC5)nc4)n[nH]c3c1)C(=O)N2 [CFI-400437]	8.81	6.16	< 5.00		5.72	6.11	6.22	5.20	6.19	< 5.00	8.31	7.43	7.88	7.21	6.14			complete inhibition of colony formation in all cell lines	induction of cell senescence	polyploidy (cell cycle analysis) (RT and MB cells [3]; 500 nM): induction of polyploidy
COc1c(Nc2cc(C)[nH]n2)nc(Sc2ccc(S(=O)(=O)Cc3cccc([N+](=O)[O-])c3F)cc2F)nc1N1CCOCC1 [centrinone]				did not induce polyploidy		5.35			5.30		6.31	6.97	6.17			5.47	5.65	complete inhibition of colony formation in all cell lines except the MB cell line DAOY and the RT cell line BT-16	induction of cell senescence	polyploidy (cell cycle analysis) (RT and MB cells [3]; 1µM): no polyploidy
